# Results published in patent US12171759B1, “Methods and uses for treating anhedonia” (Xenon Pharmaceuticals Inc., priority 2021, dated 2024).
# Where “and” joins values, the source holds several entries; their conditions need not be identical. Identical values can stand only once. Entries after “also recorded” stand apart in the source; their conditions may differ.
# System: male Long Evans rats
# Assay: Progressive ratio (PR) schedule of reinforcement for food (Progressive Ratio Test, PRT)
# Assay type: in vivo, rat
# Design: Sess. Duration: unit not given here
# Settings: AVG
# Description: The objective of this study was to test the effect of Compound A (1, 3, or 8 mg/kg, p.o.) on motivation as measured by rats responding for food under a progressive ratio (PR) schedule of reinforcement. Test measures included the total number of lever presses, and number of rewards (food pellets) acquired (break point).
# The progressive ratio (PR) task is a cross species translational approach used as measure of motivational performance including as a measure of anhedonia (see, e.g., Hodos W., Science 1961, 134:943-944; Spierling et al., Physiol Behav. 2017, 177:99-106; Radke et al., Pharmacol Biochem Behav. 2015, 129:51-55; Hauser et al., Hormones and Behavior 2009, 56:364-375; Merali et al., Psychopharmacology 2003, 165:413-418; Marchese et al., Int J Neuropsychopharmacology 2013, 16:1611-1621; Karlsson et al., Hippocampus 2018, 28 (7): 512-522: Strauss et al., Schizophr Res. 2016, 170 (1): 198-204; and Gunthorpe et al., Epilepsia 2012, 53 (3): 412-424). In rodent species, the basic test design involves training subjects to lever press for a food reward (45 mg Bioserve pellets) under a schedule in which the number of responses required to achieve a pellet increased for successive reinforcers. The present study used a progression ratio derived from the equation ratio=[5×e^(0.2×reinforcer #)−5], and was as follows: 2, 4, 6, 9, 12, 15, 20, 25, 32, 40, 50, 62, 77, 95, 118, 145, 178, etc. Rats were therefore required to lever press a progressively increasing number of times to gain each successive reward, until reaching a break point, i.e., not meeting the schedule requirement. […] This provided a quantitative measurement of effort the animal would expend for the given reinforcer, which was interpreted as a measure of motivation. Based on the amount of food acquired during a typical test session (e.g., a break point of 10-12, corresponds to 0.45-0.54 g food), responding is limited by the amount of effort the animal is willing to expend for a single food pellet, rather than factors such as satiety.
# Rats may be categorized based on differences in PR breakpoint, i.e., “low” and “high” responders. […] Motivational deficits are commonly seen in anhedonia associated with many neuropsychological disorders, such as depression, dementia, and schizophrenia (Lactôt et al., Alzheimer's and Dementia 2017, 13:84-100) and efficacy in treating “low” responder rats is indicative of efficacy in treating more significant or severe anhedonia.
# The primary purpose of this proposal was to evaluate the effect of Compound A on motivational performance of Male Long Evans rats under a progressive ratio schedule. A large (N=32) cohort of rats were used and the effect of Compound A was investigated both in all rats, and also a “low” responder subgroup, based on the low tertile (N=11) cohort recorded over 5 days baseline responding prior to study commencement.
# Dosage form: Compound A was suspended in 0.5% CMC-Na and 0.1% Tween 80 in purified water and sonicated until fully dissolved. Drug was administered at a volume of 10 mL/kg, orally.
# Doses tested: 1, 3, 8 mg/kg.
# Pretreatment time: 120 minutes.
# Dosage form: D-Amp was suspended in 0.9% saline and sonicated until fully dissolved. Drug was administered at a volume of 1 mL/kg, intraperitoneally.
# Pretreatment time: 10 minutes.
# Test System: Thirty-two (32) experimentally non-naïve male Long Evans rats were included in the study.
# Housing and Management of Test System: Animals were singly housed and maintained on a restricted diet regimen, in which they were fed approximately 18-20 g of standard laboratory chow once per day following the completion of study procedures (between 16:00 h and 18:00 h). Water was available ad-libitum, excluding during training/testing sessions. Animals were maintained on a 12 h/12 h light/dark cycle with all testing conducted during the animals' light cycle. All animal use procedures were performed in accordance with the principles of the Canadian Council on Animal Care (CCAC). […]
# [1] = High responder subgroup (N=11), 1 mg/kg p.o.
# [2] = High responder subgroup (N=11), 3 mg/kg p.o.
# [3] = High responder subgroup (N=11), 8 mg/kg p.o.
# [4] = Low responder subgroup (N=11), 1 mg/kg p.o.
# [5] = Low responder subgroup (N=11), 3 mg/kg p.o.
# [6] = Low responder subgroup (N=11), 3 mg/kg p.o., listed as Cpmd A
# [7] = Low responder subgroup (N=11), 8 mg/kg p.o.
# [8] = Low responder subgroup (N=11), 8 mg/kg p.o., listed as Cpmd A
# [9] = all rats (N = 32), 1 mg/kg p.o., 120 min pretreatment
# [10] = all rats (N = 32), 3 mg/kg p.o., 120 min pretreatment
# [11] = all rats (N = 32), 3 mg/kg p.o., 120 min pretreatment, listed as Cpmd A
# [12] = all rats (N = 32), 8 mg/kg p.o., 120 min pretreatment
# [13] = all rats (N = 32), 8 mg/kg p.o., 120 min pretreatment, listed as Cpmd A
# [14] = High responder subgroup (N=11), 0.6 mg/kg i.p.
# [15] = Low responder subgroup (N=11), 0.6 mg/kg i.p.
# [16] = all rats (N = 32), 0.6 mg/kg i.p., 10 min pretreatment
structure (smiles),measurement,setting,value
"Cc1cc(N2CCc3cc(F)ccc3C2)cc(C)c1NC(=O)CC(C)(C)C [Compound A, N-[4-(6-fluoro-3,4-dihydro-1H-isoquinolin-2-yl)-2,6-dimethylphenyl]-3,3-dimethylbutanamide]",Lever Press,[1],707.5
same,Rewards (break point),[1],14.6
same,Sess. Duration,[1],21.2
same,Lever Press,[2],623.9
same,Rewards (break point),[2],14.3
same,Sess. Duration,[2],24.3
same,Lever Press,[3],700.0
same,Rewards (break point),[3],14.6
same,Sess. Duration,[3],20.8
same,Lever Press,[4],141.5
same,Rewards (break point),[4],8.2
same,Sess. Duration,[4],15.5
same,Lever Press,[5],selectively increase; also recorded: statistical significance
same,Rewards (break point),[5],selectively increase; also recorded: statistical significance
same,Sess. Duration,[5],23.2
same,Lever Press,[6],272.7
same,Rewards (break point),[6],10.7
same,Lever Press,[7],selectively increase; also recorded: statistical significance
same,Rewards (break point),[7],selectively increase; also recorded: statistical significance
same,Sess. Duration,[7],22.6
same,Lever Press,[8],258.0
same,Rewards (break point),[8],10.5
same,Lever Press,[9],392.4
same,Rewards (break point),[9],11.5
same,Sess. Duration,[9],16.9
same,Lever Press,[10],significant increase; also recorded: significantly increasing; also recorded: statistical significance
same,Rewards (break point),[10],significant increase; also recorded: significantly increasing; also recorded: statistical significance
same,Sess. Duration,[10],22.6
same,Lever Press,[11],439.3
same,Rewards (break point),[11],12.5
same,Lever Press,[12],significant increase; also recorded: significantly increasing; also recorded: statistical significance
same,Rewards (break point),[12],significant increase; also recorded: significantly increasing; also recorded: statistical significance
same,Sess. Duration,[12],21.1
same,Lever Press,[13],479.8
same,Rewards (break point),[13],12.8
"C[C@H](N)Cc1ccccc1 [D-Amphetamine, reference compound]",Rewards (break point),[14],17.5±0.9 and 17.5
same,Sess. Duration,[14],52.4
same,Rewards (break point),[15],12.2±1.2 and 12.2
same,Sess. Duration,[15],44.5
same,Lever Press,[16],893+131 and 893.0
same,Rewards (break point),[16],14.7 ± 0.7 and 14.7
same,Sess. Duration,[16],44.8
